Data published in patent US20250303004A1, “RADIOPHARMACEUTICAL COMPOSITIONS FOR LOW TOXICITY ACTINIUM IN TARGETED RADIONUCLIDE THERAPY” (Curium US LLC, priority 2021, published 2025).
“Also recorded” adds a separate entry of the source. Read-outs that look alike come from different tables or passages of the source.

Assays:
[1] = test system: salivary glands, kidneys, red marrow; test: Dosimetry estimate for ^225Ac-PSMA-617 extrapolated from ^177Lu-PSMA-617 scans; type: in vivo, human; conditions: FIG. 15
Procedure: The clinical dosimetry basis and dose finding study was performed by using the isotopes ^225Ac and ^177Lu by Kratochwil et al. A dosimetry estimate was calculated on the basis of time-activity curves derived from serially obtained ^177Lu-PSMA-617 scans extrapolated to the physical half-life of ^225Ac, assuming instant decay of unstable daughter nuclides. Salvage therapies empirically conducted with 50 (n=4), 100 (n=4), 150 (n=2), and 200 kBq/kg (n=4) of 225Ac-PSMA-617 were evaluated retrospectively regarding toxicity and treatment response. Eight of 14 patients received further cycles in either 2- or 4-mo intervals with identical or de-escalated activities.
In FIG. 15, the absorbed radiation dose estimates for ^225Ac-PSMA-617 are shown together with I-131-“PSMA” and ^177Lu-PSMA-617 doses. We see that mean dose for salivary glands is approximately 70% higher with ^225Ac-PSMA-617 than with ^177Lu-PSMA-617, and red marrow dose 85% higher, respectively.

patients with mCRPC [2] = conditions: cited from earlier work
patients with mCRPC [3] = conditions: cited from earlier work; for Biochemical response PSA50 (PSA decline of more than 50%): 40 patients (38 evaluated)
patient [4] = conditions: Sathekge 2019a; 1 patient; 8 MBq per cycle; cited from earlier work
patient [5] = conditions: De Medeiros 2019; 1 patient; 6-8 MBq per cycle; cited from earlier work
men with mCRPC = conditions: cited from earlier work
patients with mCRPC [6] = conditions: 26 patients, cited from earlier work; for Biochemical response PSA50 (PSA decline of >50%): all progressed after ^177Lu-PSMA
patients with mCRPC [7] = conditions: cited from earlier work; remark: listed apart in the source
patients [8] = conditions: van der Doelen 2020; 13 patients; 6-8 MBq per cycle; cited from earlier work
patient [9] = conditions: cited from earlier work
patients [10] = conditions: out of 60; cited from earlier work
cerebral metastases = conditions: in vivo; cited from earlier work
[11] = Kratochwil 2016, 2 patients, 100 kBq/kg per cycle
[12] = both patients, 100 kBq/kg every 8 weeks
[13] = Kratochwil 2018, 40 patients, 100 kBq/kg per cycle
[14] = 73 patients, percentage in parentheses
[15] = Sathekge 2020, 73 patients, 4-8 MBq per cycle
[16] = Feuerecker 2020, 4-8 MBq per cycle
[17] = Yadav 2020, 28 patients, 100 kBq/kg per cycle
[18] = group with previous ^177Lu-PSMA
[19] = 3 cycles of mean 8.4 MBq, PSA 39.7 ng/ml at first cycle

For O=C(O)CC[C@H](NC(=O)N[C@@H](CCCCNC(=O)[C@H](Cc1ccc2ccccc2c1)NC(=O)[C@H]1CC[C@H](CNC(=O)CN2CCN(CC(=O)O)CCN(CC(=O)O)CCN(CC(=O)O)CC2)CC1)C(=O)O)C(=O)O [^225Ac-PSMA-617, metal not drawn], the “mean dose for salivary glands higher than with ^177Lu-PSMA-617” value [1] is listed as “approximately 70%”, the “red marrow dose higher than with ^177Lu-PSMA-617” value [1] is listed as 85% and the “Salivary gland toxicity (xerostomia)” value (patients with mCRPC [2]; 2 patients) is listed as “reported in both patients”. For the same compound, the “Biochemical response PSA50” value (patients with mCRPC [2]; [11]) was 100%, the Major toxicity (patients with mCRPC [2]; [11]) was “xerostomia” and the PSA (patients with mCRPC [2]; [12]) was “declined below the measurable level”. The “response on ^68Ga-PSMA-11 PET/CT scan” value (patients with mCRPC [2]; [12]) was “complete response”, the “median duration of tumor control” value (patients with mCRPC [3]; 40 patients, 100 kBq/kg) was 9 months and the median overall survival (patients with mCRPC [3]; 40 patients, 100 kBq/kg) was “more than 12 months”. For the same compound, the “progression free survival (median)” value (patients with mCRPC [3]; 40 patients, 100 kBq/kg) was 7.0 months, the “Biochemical response PSA50 (PSA decline of more than 50%)” value (patients with mCRPC [3]; Kratochwil 2018, 100 kBq/kg per cycle) was 63% and the “Biochemical response PSA50 (PSA decline of more than 50%)” value (patients with mCRPC [3]; Kratochwil 2018, 100 kBq/kg per cycle, listed as PSMA-617) was 63%. The Major toxicity (patients with mCRPC [3]; [13]) was “xerostomia”, the OS (patients with mCRPC [3]; [13]) was “na/>12 mo” and the “patients demonstrating any PSA response” value (patients with mCRPC [3]; of 38 patients surviving at least 8 weeks) was 87%. The “Biochemical response PSA50” value (patient [4]) was 100%, the “Biochemical response PSA50” value (patient [5]) was 100% and the Major toxicity (patient [5]) was “xerostomia; also recorded: xerophtalmia”. The “Median PFS” value (men with mCRPC; 73 patients, 95% CI, 13.1-17.4 months) was 15.2 months, the “Median OS” value (men with mCRPC; 73 patients, 95% CI, 16.2-19.9 months) was 18 months and the “Anemia, Grade I or II” value (men with mCRPC; 73 patients) was 22 patients. For the same compound, the “Anemia, Grade IV” value (men with mCRPC; 73 patients) was 0 patients, the “Anorexia, Grade I or II” value (men with mCRPC; 73 patients) was 23 patients and the “Anorexia, Grade III” value (men with mCRPC; 73 patients) was 0 patients. The “Anorexia, Grade IV” value (men with mCRPC; 73 patients) was 0 patients, the “Constipation, Grade I or II” value (men with mCRPC; 73 patients) was 19 patients and the “Constipation, Grade III” value (men with mCRPC; 73 patients) was 0 patients. For the same compound, the “Constipation, Grade IV” value (men with mCRPC; 73 patients) was 0 patients, the “Dry eyes, Grade I or II” value (men with mCRPC; 73 patients) was 4 patients and the “Dry eyes, Grade III” value (men with mCRPC; 73 patients) was 0 patients. The “Dry eyes, Grade IV” value (men with mCRPC; 73 patients) was 0 patients, the “Dry mouth, Grade I or II” value (men with mCRPC; 73 patients) was 62 patients and the “Dry mouth, Grade III” value (men with mCRPC; 73 patients) was 0 patients. The “Dry mouth, Grade IV” value (men with mCRPC; 73 patients) was 0 patients, the “Dysgeusia, Grade I or II” value (men with mCRPC; 73 patients) was 4 patients and the “Dysgeusia, Grade III” value (men with mCRPC; 73 patients) was 0 patients. The “Dysgeusia, Grade IV” value (men with mCRPC; 73 patients) was 0 patients, the “Dyspepsia, Grade I or II” value (men with mCRPC; 73 patients) was 3 patients and the “Dyspepsia, Grade III” value (men with mCRPC; 73 patients) was 0 patients. For the same compound, the “Dyspepsia, Grade IV” value (men with mCRPC; 73 patients) was 0 patients, the “Dysuria, Grade I or II” value (men with mCRPC; 73 patients) was 13 patients and the “Dysuria, Grade III” value (men with mCRPC; 73 patients) was 0 patients. The “Dysuria, Grade IV” value (men with mCRPC; 73 patients) was 0 patients, the “Fatigue, Grade I or II” value (men with mCRPC; 73 patients) was 37 patients and the “Fatigue, Grade III” value (men with mCRPC; 73 patients) was 0 patients. The “Fatigue, Grade IV” value (men with mCRPC; 73 patients) was 0 patients, the “Hypoalbuminemia, Grade I or II” value (men with mCRPC; 73 patients) was 14 patients and the “Hypoalbuminemia, Grade III” value (men with mCRPC; 73 patients) was 0 patients. For the same compound, the “Hypoalbuminemia, Grade IV” value (men with mCRPC; 73 patients) was 0 patients, the “Leukopenia, Grade I or II” value (men with mCRPC; 73 patients) was 7 patients and the “Leukopenia, Grade IV” value (men with mCRPC; 73 patients) was 0 patients. For the same compound, the “Nausea, Grade I or II” value (men with mCRPC; 73 patients) was 15 patients, the “Nausea, Grade III” value (men with mCRPC; 73 patients) was 0 patients and the “Nausea, Grade IV” value (men with mCRPC; 73 patients) was 0 patients. For the same compound, the “Renal Failure, Grade I or II” value (men with mCRPC; 73 patients) was 18 patients, the “Thrombocytopenia, Grade I or II” value (men with mCRPC; 73 patients) was 6 patients and the “Thrombocytopenia, Grade IV” value (men with mCRPC; 73 patients) was 0 patients. For the same compound, the “Vomiting, Grade I or II” value (men with mCRPC; 73 patients) was 4 patients, the “Vomiting, Grade III” value (men with mCRPC; 73 patients) was 0 patients and the “Vomiting, Grade IV” value (men with mCRPC; 73 patients) was 0 patients. For the same compound, the “Weight loss, Grade I or II” value (men with mCRPC; 73 patients) was 28 patients, the “Weight loss, Grade III” value (men with mCRPC; 73 patients) was 0 patients and the “Weight loss, Grade IV” value (men with mCRPC; 73 patients) was 0 patients. The “patients with negative ^68Ga-PSMA PET/CT images post therapy” value (men with mCRPC; 73 patients) was 29%, the “Anemia, Grade III” value (men with mCRPC; [14]) was 5 (7) patients and the “Leukopenia, Grade III” value (men with mCRPC; [14]) was 2 (3) patients. For the same compound, the “Renal Failure, Grade III” value (men with mCRPC; [14]) was 3 (4) patients, the “Renal Failure, Grade IV” value (men with mCRPC; [14]) was 2 (3) patients and the “Thrombocytopenia, Grade III” value (men with mCRPC; [14]) was 1 (1) patients. The “Biochemical response PSA50 (≥50% PSA decline)” value (men with mCRPC; [15]) was 70%, the OS (men with mCRPC; [15]) was 18.0 mo and the PFS (men with mCRPC; [15]) was 15.2 mo. For the same compound, the “Biochemical response PSA50 (≥50% PSA decline)” value (men with mCRPC; Sathekge 2020, 73 patients, 4-8 MBq per cycle, listed as PSMA-617) was 70%, the “patients with any decline in PSA” value (men with mCRPC; at the end of therapy, 73 patients) was 82% and the “patients who had passed away” value (men with mCRPC; of 73) was 13 patients. For the same compound, the “patients with disease progression” value (men with mCRPC; of 73) was 23 patients, the median overall survival (patients with mCRPC [6]; 95% CI 4.5-12.1 months) was 7.7 months and the complete response (patients with mCRPC [6]) was “no complete response was seen”. For the same compound, the “patients refusing any further treatment due to severe xerostomia” value (patients with mCRPC [6]) was 23%, the “patients with any PSA reduction” value (patients with mCRPC [6]) was 88% and the xerostomia (patients with mCRPC [6]) was “Mild irreversible xerostomia was seen in all patients”. For the same compound, the “patients with treatment discontinued to prevent further deterioration of marrow toxicity” value (patients with mCRPC [6]; pre-existing marrow toxicity) was 8%, the “Biochemical response PSA50 (PSA decline of >50%)” value (patients with mCRPC [6]; [16]) was 65% and the “Biochemical response PSA50 (PSA decline of >50%)” value (patients with mCRPC [6]; Feuerecker 2020, 4-8 MBq per cycle, listed as PSMA-617) was 65%. The Major toxicity (patients with mCRPC [6]; [16]) was “xerostomia; also recorded: Hb↓, WBC↓, plt↓”, the OS (patients with mCRPC [6]; [16]) was 7.7 mo and the PFS (patients with mCRPC [6]; [16]) was 3.5 mo. The “Biochemical response PSA50” value (patients with mCRPC [7]; [17]) was 39%, the Major toxicity (patients with mCRPC [7]; [17]) was “xerostomia; also recorded: fatigue” and the OS (patients with mCRPC [7]; [17]) was 17 mo. For the same compound, the PFS (patients with mCRPC [7]; [17]) was 12 mo, the “PSA decline of >50%” value (patients with mCRPC [7]; ^177Lu PSMA naïve group) was 53.8% and the median survival (patients with mCRPC [7]; ^177Lu PSMA naïve group) was 12 months. For the same compound, the overall survival (patients with mCRPC [7]; ^177Lu PSMA naïve group) was 17 months, the progression rate (patients with mCRPC [7]; ^177Lu PSMA naïve group) was 22.3% and the “PSA decline of >50%” value (patients with mCRPC [7]; [18]) was 26.6%. For the same compound, the median survival (patients with mCRPC [7]; [18]) was 10 months, the overall survival (patients with mCRPC [7]; [18]) was 16 months and the progression rate (patients with mCRPC [7]; [18]) was 46%. The “Biochemical response PSA50” value (patients [8]) was 69%, the Major toxicity (patients [8]) was “xerostomia” and the OS (patients [8]) was “na/8.5 mo”. For the same compound, the “PSA level at second cycle” value (patient [9]; [19]) was 7.7 ng/mL, the “PSA level at third cycle” value (patient [9]; [19]) was 0.32 ng/mL and the xerostomia (patient [9]; 3 cycles of mean 8.4 MBq) was “chronic xerostomia”. For the same compound, the creatinine (patient [9]; January 2019, increased from 1.3 in October 2015) was 3.3 mg/dL, the “patients with poor response despite sufficient tumor uptake in PSMA PET/CT” value (patients [10]) was 10 patients and the blood-brain barrier crossing (cerebral metastases) was “crosses the blood-brain barrier”. For the same compound, the “effect on cerebral metastases” value (cerebral metastases) was “significant regression of cerebral metastases”.
